Assay results as given in ChEMBL document CHEMBL5537178, “Discovery of TP0628103: A Highly Potent and Selective MMP-7 Inhibitor with Reduced OATP-Mediated Clearance Designed by Shifting Isoelectric Points” (J Med Chem, 2024).

Legend:
[1] = Chemical stability of the compound in pH 4 aqueous solution assessed as degradation by measuring residual rate incubated for 24 hrs at 65 degC by HPLC analysis; type: physicochemical; conditions: read-out: Activity
Interstitial collagenase = target: T1, Interstitial collagenase (Homo sapiens, UniProt P03956); test: Inhibition of recombinant human MMP1 assessed as enzyme activity by measuring fluorescence using fluorogenic peptide substrate
T1 sequence (P03956 whole entry): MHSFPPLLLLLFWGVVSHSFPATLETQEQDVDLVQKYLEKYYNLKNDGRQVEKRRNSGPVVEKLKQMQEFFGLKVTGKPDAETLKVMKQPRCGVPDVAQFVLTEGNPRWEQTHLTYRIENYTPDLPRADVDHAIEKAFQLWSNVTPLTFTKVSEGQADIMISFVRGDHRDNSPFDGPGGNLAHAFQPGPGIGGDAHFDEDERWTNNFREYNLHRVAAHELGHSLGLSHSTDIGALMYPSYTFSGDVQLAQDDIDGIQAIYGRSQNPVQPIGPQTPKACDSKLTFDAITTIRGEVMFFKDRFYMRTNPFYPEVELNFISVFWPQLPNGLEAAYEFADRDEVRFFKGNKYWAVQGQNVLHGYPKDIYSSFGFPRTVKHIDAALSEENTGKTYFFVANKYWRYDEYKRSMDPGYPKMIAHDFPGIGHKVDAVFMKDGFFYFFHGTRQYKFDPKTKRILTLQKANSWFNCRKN

Stromelysin-1 = Stromelysin-1 (Homo sapiens, UniProt P08254); test: Inhibition of recombinant human MMP3 assessed as enzyme activity by measuring fluorescence using fluorogenic peptide substrate
Neutrophil collagenase = Neutrophil collagenase (Homo sapiens, UniProt P22894); test: Inhibition of recombinant human MMP8 assessed as enzyme activity by measuring fluorescence using fluorogenic peptide substrate
[2] = target: Matrix metalloproteinase-9 (Homo sapiens, UniProt P14780); test: Inhibition of recombinant human MMP9 assessed as enzyme activity by measuring fluorescence using fluorogenic peptide substrate
[3] = Inhibition of recombinant mouse MMP1 assessed as enzyme activity by measuring fluorescence using fluorogenic peptide substrate
[4] = Chemical stability of the compound in pH 7.4 aqueous solution assessed as degradation by measuring residual rate incubated measured after 2 weeks at 65 degC by HPLC analysis; type: physicochemical; conditions: read-out: Stability
CYP1A2 [5] = target: T2, CYP1A2 (Homo sapiens, UniProt P05177); test: Inhibition of CYP1A2 in human liver microsomes at 10 uM by LC-MS/MS analysis relative to control; type: ADME, Microsome
T2 sequence (P05177 whole entry): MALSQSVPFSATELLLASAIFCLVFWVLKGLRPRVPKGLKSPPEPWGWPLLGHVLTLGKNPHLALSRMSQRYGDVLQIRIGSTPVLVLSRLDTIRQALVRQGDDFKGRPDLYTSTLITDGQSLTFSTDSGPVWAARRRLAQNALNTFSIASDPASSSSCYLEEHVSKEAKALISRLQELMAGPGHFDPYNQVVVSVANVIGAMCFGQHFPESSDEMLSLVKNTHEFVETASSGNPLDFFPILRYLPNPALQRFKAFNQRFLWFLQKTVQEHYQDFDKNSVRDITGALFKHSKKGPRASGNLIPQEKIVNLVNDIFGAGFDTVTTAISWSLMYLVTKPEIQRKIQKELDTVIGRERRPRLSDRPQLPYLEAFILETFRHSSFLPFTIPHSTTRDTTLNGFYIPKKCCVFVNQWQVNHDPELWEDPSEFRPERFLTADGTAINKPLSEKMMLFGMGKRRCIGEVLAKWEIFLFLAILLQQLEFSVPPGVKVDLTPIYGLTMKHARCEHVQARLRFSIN

CYP3A [6] = target: T3, CYP3A (Homo sapiens, UniProt P08684+P20815+P24462+Q9HB55); test: Inhibition of CYP3A in human liver microsomes using midazolam as substrate at 10 uM by LC-MS/MS analysis relative to control; type: ADME, Microsome; conditions: probe midazolam
CYP3A [7] = target: T3, CYP3A; test: Inhibition of CYP3A in human liver microsomes using testosterone as substrate at 10 uM by LC-MS/MS analysis relative to control; type: ADME, Microsome; conditions: probe testosterone
CYP1A2 [8] = target: T2, CYP1A2; test: Time dependent inhibition of CYP1A2 in human liver microsomes at 10 uM by LC-MS/MS analysis relative to control; type: ADME, Microsome; conditions: read-out: TDI
CYP2C8 = target: T4, CYP2C8 (Homo sapiens, UniProt P10632); test: Time dependent inhibition of CYP2C8 in human liver microsomes at 10 uM by LC-MS/MS analysis relative to control; type: ADME, Microsome; conditions: read-out: TDI
T4 sequence (P10632 whole entry): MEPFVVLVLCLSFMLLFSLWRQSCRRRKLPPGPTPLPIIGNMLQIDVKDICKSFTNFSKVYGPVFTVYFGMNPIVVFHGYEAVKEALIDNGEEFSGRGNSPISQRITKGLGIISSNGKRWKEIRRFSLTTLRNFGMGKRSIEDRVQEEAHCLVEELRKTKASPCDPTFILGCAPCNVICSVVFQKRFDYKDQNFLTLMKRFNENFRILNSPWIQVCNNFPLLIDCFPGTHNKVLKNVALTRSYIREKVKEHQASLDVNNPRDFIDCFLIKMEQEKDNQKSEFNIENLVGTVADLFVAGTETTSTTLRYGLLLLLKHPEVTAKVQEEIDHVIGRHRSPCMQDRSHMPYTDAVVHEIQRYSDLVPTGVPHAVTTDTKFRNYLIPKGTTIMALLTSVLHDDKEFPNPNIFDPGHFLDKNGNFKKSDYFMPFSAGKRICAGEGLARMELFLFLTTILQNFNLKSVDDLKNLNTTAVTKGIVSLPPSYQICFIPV

CYP2D6 = CYP2D6 (Homo sapiens, UniProt P10635); test: Time dependent inhibition of CYP2D6 in human liver microsomes at 10 uM by LC-MS/MS analysis relative to control; type: ADME, Microsome; conditions: read-out: TDI
[9] = Fraction unbound in rat; type: ADME
[10] = Fraction unbound in monkey; type: ADME, Macaca mulatta; conditions: rhesus monkey
[11] = Clearance in Sprague-Dawley rat at 0.5 mg/kg, iv; type: ADME, organism-based; conditions: in vivo
[12] = Volume of distribution at steady state in Sprague-Dawley rat at 0.5 mg/kg, iv; type: ADME, organism-based; conditions: in vivo, read-out: Vdss
[13] = Clearance in cynomolgus monkey at 1 mg/kg, iv; type: ADME, organism-based, Macaca fascicularis; conditions: in vivo
[14] = Volume of distribution at steady state in cynomolgus monkey at 1 mg/kg, iv; type: ADME, organism-based, Macaca fascicularis; conditions: in vivo, read-out: Vdss
[15] = target: Voltage-gated inwardly rectifying potassium channel KCNH2 (Homo sapiens, UniProt Q12809); test: Inhibition of hERG at 10 uM; type: toxicity
HepG2 = test: Cytotoxicity against human HepG2 cells at 10 uM; type: toxicity, cell-based; conditions: hepg2, 10 µM
[16] = Plasma unbound drug concentration at steady state in UUO surgery-induced renal fibrosis C57BL/6J mouse model at 0.3 mg/kg/day, sc administered with mini osmotic pump measured after 3 days; type: ADME, organism-based; conditions: in vivo, 72 h, time 3 day
[17] = Plasma unbound drug concentration at steady state in UUO surgery-induced renal fibrosis C57BL/6J mouse model at 1 mg/kg/day, sc administered with mini osmotic pump measured after 3 days; type: ADME, organism-based; conditions: in vivo, 72 h, time 3 day
[18] = Plasma unbound drug concentration at steady state in UUO surgery-induced renal fibrosis C57BL/6J mouse model at 3 mg/kg/day, sc administered with mini osmotic pump measured after 3 days; type: ADME, organism-based; conditions: in vivo, 72 h, time 3 day

Chain of Voltage-gated inwardly rectifying potassium channel KCNH2 (Q12809 whole entry): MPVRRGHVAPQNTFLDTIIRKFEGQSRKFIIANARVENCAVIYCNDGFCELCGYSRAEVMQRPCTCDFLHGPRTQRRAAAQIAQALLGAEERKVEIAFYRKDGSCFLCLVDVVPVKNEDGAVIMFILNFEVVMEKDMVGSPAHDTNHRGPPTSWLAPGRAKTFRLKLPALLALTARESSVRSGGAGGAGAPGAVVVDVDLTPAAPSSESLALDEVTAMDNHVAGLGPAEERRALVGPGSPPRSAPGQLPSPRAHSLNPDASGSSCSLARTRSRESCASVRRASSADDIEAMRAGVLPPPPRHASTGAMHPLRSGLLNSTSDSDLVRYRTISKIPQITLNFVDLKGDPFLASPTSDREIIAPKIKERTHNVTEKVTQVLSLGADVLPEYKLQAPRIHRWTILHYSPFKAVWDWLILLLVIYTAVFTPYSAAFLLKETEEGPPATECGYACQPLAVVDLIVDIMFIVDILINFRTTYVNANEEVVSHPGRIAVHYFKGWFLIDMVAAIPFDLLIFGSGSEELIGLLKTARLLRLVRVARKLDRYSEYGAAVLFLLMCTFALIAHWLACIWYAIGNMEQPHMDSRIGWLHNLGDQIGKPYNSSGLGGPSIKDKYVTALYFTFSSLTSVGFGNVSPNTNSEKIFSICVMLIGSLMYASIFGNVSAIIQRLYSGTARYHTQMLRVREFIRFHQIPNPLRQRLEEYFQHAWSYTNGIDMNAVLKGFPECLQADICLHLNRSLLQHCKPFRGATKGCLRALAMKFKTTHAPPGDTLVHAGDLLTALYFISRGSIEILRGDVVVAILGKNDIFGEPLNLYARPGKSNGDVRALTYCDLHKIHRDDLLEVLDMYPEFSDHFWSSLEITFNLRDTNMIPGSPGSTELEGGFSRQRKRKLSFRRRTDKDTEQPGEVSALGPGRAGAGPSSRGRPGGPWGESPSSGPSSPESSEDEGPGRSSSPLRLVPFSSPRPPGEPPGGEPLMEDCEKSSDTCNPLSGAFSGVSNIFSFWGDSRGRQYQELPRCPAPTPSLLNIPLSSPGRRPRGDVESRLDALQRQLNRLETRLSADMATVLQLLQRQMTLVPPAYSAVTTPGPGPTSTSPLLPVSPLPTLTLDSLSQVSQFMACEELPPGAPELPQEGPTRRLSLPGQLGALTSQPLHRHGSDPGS
Chain of Stromelysin-1 (P08254 whole entry): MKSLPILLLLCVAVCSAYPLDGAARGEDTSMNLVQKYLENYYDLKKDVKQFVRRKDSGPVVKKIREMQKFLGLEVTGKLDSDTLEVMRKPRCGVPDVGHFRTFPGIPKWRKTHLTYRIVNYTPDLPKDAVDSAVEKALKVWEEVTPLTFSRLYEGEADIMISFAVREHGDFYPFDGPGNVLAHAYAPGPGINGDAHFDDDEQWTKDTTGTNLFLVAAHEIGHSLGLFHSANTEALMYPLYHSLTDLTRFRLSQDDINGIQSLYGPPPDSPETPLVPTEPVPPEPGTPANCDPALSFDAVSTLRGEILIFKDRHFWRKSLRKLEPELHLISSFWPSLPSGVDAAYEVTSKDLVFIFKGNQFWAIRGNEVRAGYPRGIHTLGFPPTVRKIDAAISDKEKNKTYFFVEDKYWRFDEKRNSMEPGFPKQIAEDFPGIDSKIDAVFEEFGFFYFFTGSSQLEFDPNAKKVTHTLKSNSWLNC
Chain of CYP2D6 (P10635 whole entry): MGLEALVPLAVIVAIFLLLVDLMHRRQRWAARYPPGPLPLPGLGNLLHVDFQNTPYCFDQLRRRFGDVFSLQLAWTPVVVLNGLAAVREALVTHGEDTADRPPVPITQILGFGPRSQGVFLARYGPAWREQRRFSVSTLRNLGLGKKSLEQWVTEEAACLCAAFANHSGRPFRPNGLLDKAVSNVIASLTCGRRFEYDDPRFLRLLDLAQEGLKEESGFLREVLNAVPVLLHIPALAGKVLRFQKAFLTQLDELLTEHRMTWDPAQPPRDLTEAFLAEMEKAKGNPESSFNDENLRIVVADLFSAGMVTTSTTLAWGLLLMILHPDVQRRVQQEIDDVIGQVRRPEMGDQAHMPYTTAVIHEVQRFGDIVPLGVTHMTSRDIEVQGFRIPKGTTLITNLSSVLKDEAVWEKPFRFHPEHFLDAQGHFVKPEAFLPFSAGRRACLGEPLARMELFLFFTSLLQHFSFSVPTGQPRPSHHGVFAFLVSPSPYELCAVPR
Chain of Neutrophil collagenase (P22894 whole entry): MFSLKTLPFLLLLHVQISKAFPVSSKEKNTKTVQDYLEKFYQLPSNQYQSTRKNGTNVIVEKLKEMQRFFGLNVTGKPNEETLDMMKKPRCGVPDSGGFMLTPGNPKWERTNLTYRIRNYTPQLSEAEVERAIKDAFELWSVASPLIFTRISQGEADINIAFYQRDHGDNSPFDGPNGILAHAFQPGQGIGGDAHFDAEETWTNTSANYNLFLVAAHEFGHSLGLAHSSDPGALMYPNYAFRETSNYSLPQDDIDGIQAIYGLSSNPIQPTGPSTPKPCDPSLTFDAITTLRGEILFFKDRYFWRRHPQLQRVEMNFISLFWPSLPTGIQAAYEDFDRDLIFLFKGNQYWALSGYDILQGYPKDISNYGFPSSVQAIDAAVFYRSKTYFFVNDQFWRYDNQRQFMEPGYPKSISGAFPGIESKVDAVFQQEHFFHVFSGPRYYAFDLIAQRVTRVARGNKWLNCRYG
Chain of Matrix metalloproteinase-9 (P14780 whole entry): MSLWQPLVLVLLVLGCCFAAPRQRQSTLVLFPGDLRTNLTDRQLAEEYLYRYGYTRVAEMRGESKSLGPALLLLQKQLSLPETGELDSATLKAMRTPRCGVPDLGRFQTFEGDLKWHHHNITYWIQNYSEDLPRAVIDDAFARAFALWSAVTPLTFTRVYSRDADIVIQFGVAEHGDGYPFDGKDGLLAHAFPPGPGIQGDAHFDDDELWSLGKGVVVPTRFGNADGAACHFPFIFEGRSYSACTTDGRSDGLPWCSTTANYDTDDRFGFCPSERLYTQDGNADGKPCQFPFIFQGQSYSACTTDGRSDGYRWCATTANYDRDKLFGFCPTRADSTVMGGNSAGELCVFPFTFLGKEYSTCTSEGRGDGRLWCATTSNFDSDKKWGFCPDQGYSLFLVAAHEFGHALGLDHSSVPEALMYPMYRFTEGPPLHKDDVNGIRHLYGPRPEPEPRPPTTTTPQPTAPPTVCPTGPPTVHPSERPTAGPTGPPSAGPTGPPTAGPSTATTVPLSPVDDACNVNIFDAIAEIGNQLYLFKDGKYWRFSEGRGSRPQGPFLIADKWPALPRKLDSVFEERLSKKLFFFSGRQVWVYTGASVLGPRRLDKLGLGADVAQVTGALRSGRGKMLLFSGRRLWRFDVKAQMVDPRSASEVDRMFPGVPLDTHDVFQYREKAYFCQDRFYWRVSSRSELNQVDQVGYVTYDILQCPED

remaining at 24 h [1]: 101% | IC50 (Interstitial collagenase): > 10 µM | IC50 (Stromelysin-1): > 10 µM | IC50 (Neutrophil collagenase): > 10 µM | IC50 [2]: > 10 µM | IC50 [3]: 0.0041 µM | remaining at 336 h [4]: 99.1% | inhibition at 10 µM (CYP1A2 [5]): 3.2% | inhibition at 10 µM (CYP3A [6]): 6% | inhibition at 10 µM (CYP3A [7]): 2.5% | inhibition at 10 µM (CYP1A2 [8]): -5% | inhibition at 10 µM (CYP2C8): 9.1% | inhibition at 10 µM (CYP2D6): -2.9% | fraction unbound [9]: 0.178 | fraction unbound [10]: 0.2 | clearance [11]: 3.52 mL/min/kg | Vd [12]: 0.179 L/kg | clearance [13]: 0.918 mL/min/kg | Vd [14]: 0.145 L/kg | Cp(f) [16]: 6.56 nM | Cp(f) [17]: 15.6 nM | Cp(f) [18]: 31 nM
SMILES: CC(C)(C)[C@H](NC(=O)[C@H](Cc1ccncc1)NC(=O)CNC(=O)CC[C@H](NS(=O)(=O)c1ccc(Cl)c(C(F)(F)F)c1)C(=O)O)C(=O)Nc1ccc(C(=O)N2CCC(C(=O)N[C@H](CCCCN)C(=O)N3CC[C@H](N)C3)CC2)cc1
inhibition (INH) [15]: Not Active | Activity (HepG2): Non-Toxic
